Results published in patent US20240368120A1 (Terns Pharmaceuticals, Inc., priority 2023, published 2024).

Target: T1, human GLP-1R receptor (Homo sapiens, UniProt P43220)
T1 construct: expressed in transfected cells
Assay: GLP-1R low expression cell assay (cAMP TR-FRET, CHO-K1_hGLP-1Rlow_clone10 cells)
Type: cell-based
Conditions: for EC50: cAMP TR-FRET, 30 min at 25° C.
Outline: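 CHO-K1 cells stably expressing low surface human GLP-1R (clone10), 1,000 cells/well, exposed to 10-point 3-fold compound dilutions for 30 min at 25 °C. cAMP measured by TR-FRET (Eu-cAMP tracer/ULight-anti-cAMP, 15 min). EC50 from Hill fit of duplicate percent activation relative to a parallel GLP-1 control agonist.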

[1] = maximum activation relative to control GLP-1 peptide agonist

T1 sequence (P43220 24-463): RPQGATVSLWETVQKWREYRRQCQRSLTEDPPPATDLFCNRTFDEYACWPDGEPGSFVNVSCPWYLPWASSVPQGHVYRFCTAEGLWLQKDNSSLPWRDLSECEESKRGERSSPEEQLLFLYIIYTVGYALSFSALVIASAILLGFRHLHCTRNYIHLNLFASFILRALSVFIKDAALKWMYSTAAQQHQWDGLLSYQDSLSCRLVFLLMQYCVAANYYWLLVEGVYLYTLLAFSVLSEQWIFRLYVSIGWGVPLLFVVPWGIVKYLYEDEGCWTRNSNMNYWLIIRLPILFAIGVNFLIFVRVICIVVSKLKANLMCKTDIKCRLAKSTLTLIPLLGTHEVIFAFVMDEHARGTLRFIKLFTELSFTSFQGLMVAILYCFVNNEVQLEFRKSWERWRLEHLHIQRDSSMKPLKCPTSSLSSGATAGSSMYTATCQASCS

SMILES	EC50	Emax [1]	GLP-1R Low Expression Cell Assay Emax (%) [1]
Cn1c(CN2CCC(c3cccc4c3O[C@@H](c3ccc(Cl)cc3F)CC4)CC2)nc2c(OC(F)F)cc(C(=O)O)cc21 [Compound 369, (R)-2-((4-(2-(4-Chloro-2-fluorophenyl)chroman-8-yl)piperidin-1-yl)methyl)-4-(difluoromethoxy)-1-methyl-1H-benzo[d]imidazole-6-carboxylic acid]	> 1000 nM	< 25%	
Cn1c(CN2CCC(c3ncccc3OCc3ccc(C#N)cc3F)CC2)nc2c(OC(F)F)cc(C(=O)O)cc21 [Compound 158, 2-((4-(3-((4-Cyano-2-fluorobenzyl)oxy)pyridin-2-yl)piperidin-1-yl)methyl)-4-(difluoromethoxy)-1-methyl-1H-benzo[d]imidazole-6-carboxylic acid]	> 1000 nM	50 to 85%	
CC(F)(F)c1cc(C(=O)O)cc2c1nc(CN1CCC(c3cccc4c3O[C@@](C)(c3ccc(Cl)cn3)O4)CC1)n2C[C@@H]1CCO1 [Compound 57, 2-((4-((S)-2-(5-Chloropyridin-2-yl)-2-methylbenzo[d][1,3]dioxol-4-yl)piperidin-1-yl)methyl)-4-(1,1-difluoroethyl)-1-(((S)-oxetan-2-yl)methyl)-1H-benzo[d]imidazole-6-carboxylic acid]	< 10 nM		
COCCOc1cc(C(=O)O)cc2c1nc(CN1CCC(c3cccc4c3O[C@](C)(c3ccc(Cl)cn3)O4)CC1)n2Cc1cncs1 [Compound 3, (R)-2-((4-(2-(5-Chloropyridin-2-yl)-2-methylbenzo[d][1,3]dioxol-4-yl)piperidin-1-yl)methyl)-4-(2-methoxyethoxy)-1-(thiazol-5-ylmethyl)-1H-benzo[d]imidazole-6-carboxylic acid]	100 to 1000 nM	> 85%	
CO/N=C/c1ccc(COc2cccc(C3CCN(Cc4nc5c(OC)cc(C(=O)O)cc5n4C[C@@H]4CCO4)CC3)n2)c(F)c1 [Compound 9, (S)-2-((4-(6-((2-Fluoro-4-((methoxyimino)methyl)benzyl)oxy)pyridin-2-yl)piperidin-1-yl)methyl)-4-methoxy-1-(oxetan-2-ylmethyl)-1H-benzo[d]imidazole-6-carboxylic acid]	< 10 nM	> 85%	
Cn1c(CN2CCC(c3cccnc3NCc3ccc(Cl)cc3F)CC2)nc2c(OC(F)F)cc(C(=O)O)cc21 [Compound 239, 2-((4-(2-((4-Chloro-2-fluorobenzyl)amino)pyridin-3-yl)piperidin-1-yl)methyl)-4-(difluoromethoxy)-1-methyl-1H-benzo[d]imidazole-6-carboxylic acid]	> 1000 nM	50 to 85%	
Cc1ccc(COc2c(F)cccc2C2CCN(Cc3nc4c(OC(F)F)cc(C(=O)O)cc4n3C)CC2)c(F)c1 [Compound 139, 4-(Difluoromethoxy)-2-((4-(3-fluoro-2-((2-fluoro-4-methylbenzyl)oxy)phenyl)piperidin-1-yl)methyl)-1-methyl-1H-benzo[d]imidazole-6-carboxylic acid]	10 to 100 nM	> 85%	
COc1c(F)c(C(=O)O)cc2nc(CN3CCC(c4cccc(OCc5ccc(C#N)cc5F)n4)CC3)n(C)c12 [Compound 336, 2-((4-(6-((4-Cyano-2-fluorobenzyl)oxy)pyridin-2-yl)piperidin-1-yl)methyl)-6-fluoro-7-methoxy-1-methyl-1H-benzo[d]imidazole-5-carboxylic acid]	> 1000 nM	< 25%	
CCOc1cc(C(=O)O)cc2c1nc(Cc1ccc(-c3cccc(OCc4ccc(C#N)cc4F)n3)cc1F)n2C [Compound 293, 2-(4-(6-((4-Cyano-2-fluorobenzyl)oxy)pyridin-2-yl)-2-fluorobenzyl)-4-ethoxy-1-methyl-1H-benzo[d]imidazole-6-carboxylic acid]	< 10 nM	> 85%	
N#Cc1ccc(COc2cccc(C3CCN(Cc4nc5ccc(C(=O)O)c6c5n4CCO6)CC3)n2)c(F)c1 [Compound 104, 2-((4-(6-((4-Cyano-2-fluorobenzyl)oxy)pyridin-2-yl)piperidin-1-yl)methyl)-3,4-dihydro-5-oxa-1,2a-diazaacenaphthylene-6-carboxylic acid]	100 to 1000 nM	> 85%	
N#Cc1ccc(COc2cccc(C3CCN(Cc4nc5ccc(C(=O)O)c(O)c5n4C[C@@H]4CCO4)CC3)n2)c(F)c1 [Compound 377, (S)-2-((4-(6-((4-Cyano-2-fluorobenzyl)oxy)pyridin-2-yl)piperidin-1-yl)methyl)-7-hydroxy-1-(oxetan-2-ylmethyl)-1H-benzo[d]imidazole-6-carboxylic acid]	< 10 nM		++++ (Emax is >85%)
N#Cc1ccc(COc2cccc(C3CCN(Cc4nc5c(OC(F)F)cc(C(=O)O)cc5n4CC4(C#N)CC4)CC3)n2)c(F)c1 [Compound 105, 2-((4-(6-((4-Cyano-2-fluorobenzyl)oxy)pyridin-2-yl)piperidin-1-yl)methyl)-1-((1-cyanocyclopropyl)methyl)-4-(difluoromethoxy)-1H-benzo[d]imidazole-6-carboxylic acid]	< 10 nM	> 85%	
COc1cc(C(=O)O)c(F)c2c1nc(CN1CCC(c3ccc(F)c(OCc4ccc(Cl)cc4F)c3)CC1)n2C [Compound 340, 2-((4-(3-((4-Chloro-2-fluorobenzyl)oxy)-4-fluorophenyl)piperidin-1-yl)methyl)-7-fluoro-4-methoxy-1-methyl-1H-benzo[d]imidazole-6-carboxylic acid]	10 to 100 nM	> 85%	
Cn1c(Cc2cc(F)c(-c3cccc(OCc4ccc(Cl)cc4F)n3)cc2F)nc2c(OC(F)F)cc(C(=O)O)cc21 [Compound 197, 2-(4-(6-((4-Chloro-2-fluorobenzyl)oxy)pyridin-2-yl)-2,5-difluorobenzyl)-4-(difluoromethoxy)-1-methyl-1H-benzo[d]imidazole-6-carboxylic acid]	< 10 nM	> 85%	
COCCc1nc(C(=O)O)cc2c1nc(CN1CCC(c3cccc(OCc4ccc(C#N)cc4F)n3)CC1)n2C [Compound 107, 2-((4-(6-((4-cyano-2-fluorobenzyl)oxy)pyridin-2-yl)piperidin-1-yl)methyl)-4-(2-methoxyethyl)-1-methyl-1H-imidazo[4,5-c]pyridine-6-carboxylic acid]	> 1000 nM	50 to 85%	

The next lines start with the values.

EC50	Emax [1]	GLP-1R Low Expression Cell Assay Emax (%) [1]	SMILES
10 to 100 nM	> 85%		Cn1c(CN2CCC(c3cccc(OCc4ccc(Cl)cc4F)n3)CC2)nc2c3c(c(C(=O)O)cc21)OCO3 [Compound 275, 7-((4-(6-((4-Chloro-2-fluorobenzyl)oxy)pyridin-2-yl)piperidin-1-yl)methyl)-6-methyl-6H-[1,3]dioxolo[4′,5′:3,4]benzo[1,2-d]imidazole-4-carboxylic acid]
> 1000 nM	< 25%		COc1c(C(=O)O)ccc2c1nc(CN1CCC(c3cccc(OCc4ccc(Cl)cc4F)n3)CC1)n2C [Compound 187, 2-((4-(6-((4-Chloro-2-fluorobenzyl)oxy)pyridin-2-yl)piperidin-1-yl)methyl)-4-methoxy-1-methyl-1H-benzo[d]imidazole-5-carboxylic acid]
< 10 nM	> 85%		[2H]C([2H])(C)Oc1cc(C(=O)O)cc2c1nc(C([2H])([2H])N1CCC(c3cccc(OC([2H])([2H])c4ccc(Cl)cc4F)n3)CC1)n2C [Compound 381, 2-((4-(6-((4-Chloro-2-fluorophenyl)methoxy-d2)pyridin-2-yl)piperidin-1-yl)methyl-d2)-4-(ethoxy-1,1-d2)-1-methyl-1H-benzo[d]imidazole-6-carboxylic acid]
< 10 nM	> 85%		Cn1c(CN2CCC(c3cccc(OCc4ccc(C#N)cc4F)n3)CC2)nc2c(OCCF)cc(C(=O)O)cc21 [Compound 183, 2-((4-(6-((4-Cyano-2-fluorobenzyl)oxy)pyridin-2-yl)piperidin-1-yl)methyl)-4-(2-fluoroethoxy)-1-methyl-1H-benzo[d]imidazole-6-carboxylic acid]
10 to 100 nM	> 85%		Cn1c(CN2CCC(c3cccc(OCc4ccc(C5CC5)cc4F)n3)CC2)nc2c(OC(F)F)cc(C(=O)O)cc21 [Compound 365, 2-((4-(6-((4-Cyclopropyl-2-fluorobenzyl)oxy)pyridin-2-yl)piperidin-1-yl)methyl)-4-(difluoromethoxy)-1-methyl-1H-benzo[d]imidazole-6-carboxylic acid]
10 to 100 nM	> 85%		COc1nc(C(=O)O)cc2c1nc(CN1CCC(c3cccc(OCc4ccc(Cl)cc4F)n3)CC1)n2C [Compound 380, 2-((4-(6-((4-Chloro-2-fluorobenzyl)oxy)pyridin-2-yl)piperidin-1-yl)methyl)-4-methoxy-1-methyl-1H-imidazo[4,5-c]pyridine-6-carboxylic acid]
10 to 100 nM	> 85%		Cn1c(CN2CCC(c3ccc(F)c(OCc4ccc(Cl)cc4F)n3)CC2)nc2c(OC(F)F)cc(C(=O)O)cc21 [Compound 242, 2-((4-(6-((4-Chloro-2-fluorobenzyl)oxy)-5-fluoropyridin-2-yl)piperidin-1-yl)methyl)-4-(difluoromethoxy)-1-methyl-1H-benzo[d]imidazole-6-carboxylic acid]
< 10 nM	> 85%		Cn1c(CN2CCC(c3cccc(OCc4ccc(Cl)cc4F)n3)CC2)nc2c(OCCO)cc(C(=O)O)cc21 [Compound 343, 2-((4-(6-((4-Chloro-2-fluorobenzyl)oxy)pyridin-2-yl)piperidin-1-yl)methyl)-4-(2-hydroxyethoxy)-1-methyl-1H-benzo[d]imidazole-6-carboxylic acid]
10 to 100 nM	> 85%		CCCOc1cc(C(=O)O)cc2c1nc(CN1CCC(c3cccc(OCc4ccc(Cl)cc4F)n3)CC1)n2C [Compound 322, 2-((4-(6-((4-chloro-2-fluorobenzyl)oxy)pyridin-2-yl)piperidin-1-yl)methyl)-1-methyl-4-propoxy-1H-benzo[d]imidazole-6-carboxylic acid]
10 to 100 nM	> 85%		CC(CF)Oc1cc(C(=O)O)cc2c1nc(CN1CCC(c3cccc(OCc4ccc(Cl)cc4F)n3)CC1)n2C (single isomer, unassigned) [Compound 262]
